Source: patent publication US8354436B2 (4SC Discovery GmbH, priority 2011, dated 2013)
Like-named read-outs stand apart in the source and are kept apart here.

Legend:
Assay type in all cases: cell-based
IFN-γ = IFN-γ production by PHA-stimulated human PBMC (OptEIA human IFN-g ELISA); settings: PHA-stimulated human PBMC, 48 hours; column C; read-out: IC50 (IFNγ)
Experimental: (§1) Analysis of Proliferation of and Cytokine Production by Human PBMC Stimulated with PHA
(§2) Peripheral blood mononuclear cells (PBMC) from healthy human donors were purified using Accuspin™ System-Histopaque-1077 (Sigma) according to the protocol recommended by the manufacturer. Purified PBMC were then washed twice with phosphate-buffered saline (PBS) and resuspended in RPMI1640 culture medium supplemented with 10% dialyzed heat inactivated fetal calf serum, 1.5 mM L-glutamine, 100 U penicillin/ml, and […] (all from PAN Biotech, Aidenbach, Germany). For stimulation, PBMC were seeded at 1×10^5 cells/well, activated with 2 μg/ml phytohaemagglutinin (PHA, Sigma) and incubated with the test compounds for 48 hours. IL-17A, IL-17F and INF-γ were then determined in the culture supernatant using a Luminex BioPlex system, following the manufacturer's instructions (BioRad, Munich, Germany). For screening, compounds were used at 10, 1, 0.1 and 0.01 μM. To determine the IC50, compounds were titrated semilogarithmically.
(§3) Cytokines were determined in the aforementioned culture supernatant using the following methods: IL-17AA/AF was measured using the Luminex BioPlex system (BioRad, Munich, Germany); IL-17AA using the human homodimer IL-17A ELISA Ready Set Go Kit from eBioscience (Frankfurt, Germany); IL-17FF using the human IL-17F ELI-Pair from Hölzel DiagnosticaGmBH (Köln, Germany); and IFN-γ using the OptEIA human IFN-g ELISA from BD Bioscience (Heidelberg, Germany), all following the manufacturer's instructions.

[1] = tested on: PBMC from healthy human donors; assay: T cell proliferation assay (PHA-stimulated human PBMC, BrdU ELISA); settings: 48 hours
Experimental: Cell proliferation was analysed using the BrdU based cell proliferation ELISA from Roche (Mannheim, Germany) according to the manufacturer's instructions. T Cell Proliferation Assay Peripheral blood mononuclear cells (PBMC) from healthy human donors were isolated by centrifugation over Ficoll-Hypaque (Sigma-Aldrich, Germany) according to manufacturer's instructions. Purified PBMC were washed twice with PBS and resuspended in RPMI1640 culture medium supplemented with 10% dialyzed heat inactivated fetal calf serum, 1.5 mM L-glutamine, 100 U penicillin/ml, and […] (all from PAN Biotech, Aidenbach, Germany). For stimulation, PBMC were seeded at 1×10^5 cells/well, activated with 2 μg/ml phytohaemagglutinin (PHA, Sigma) and incubated with the test compound. After 48 hours proliferation was measured using the BrdU based cell proliferation ELISA from Roche (Mannheim, Germany) according to the manual.

IL-17FF = IL-17FF production by PHA-stimulated human PBMC (human IL-17F ELI-Pair); settings: PHA-stimulated human PBMC, 48 hours; column B; read-out: IC50 (IL-17FF)
Experimental: as §1, §2, §3

[2] = PHA-stimulated human PBMC, column D, read-out: IC50 (Tcell proliferation)

## O=C(c1c(-c2c(F)cccc2Cl)noc1-c1cnn(-c2ccccc2F)c1C(F)(F)F)N1CCCCC1 [Example I-21, (3-(2-chloro-6-fluorophenyl)-5-(1-(2-fluorophenyl)-5-(trifluoromethyl)-1H-pyrazol-4-yl)isoxazol-4-yl)(piperidin-1-yl)methanone]
IFN-γ
  IC50: 10 to 100 nM
[1]; [2]
  IC50: 10 to 100 nM

## NC(=O)c1c(-c2c(F)cccc2Cl)noc1-c1cnn(-c2cccc(F)c2)c1C(F)(F)F [Example I-124, 3-(2-chloro-6-fluorophenyl)-5-(1-(3-fluorophenyl)-5-(trifluoromethyl)-1H-pyrazol-4-yl)isoxazole-4-carboxamide]
IFN-γ
  IC50: 1000 to 10000 nM
[1]; [2]
  IC50: 1000 to 10000 nM

## Fc1ccccc1-n1ncc(-c2onc(-c3c(F)cccc3Cl)c2Br)c1C(F)(F)F [IB-26, 4-bromo-3-(2-chloro-6-fluorophenyl)-5-(1-(2-fluorophenyl)-5-(trifluoromethyl)-1H-pyrazol-4-yl)isoxazole]
IFN-γ
  IC50: 100 to 1000 nM
[1]; [2]
  IC50: 1000 to 10000 nM

## Fc1cccc(Cl)c1-c1noc(-c2cnn(-c3ccc(OC(F)(F)F)cc3)c2C(F)(F)F)c1Br [IB-25, 4-bromo-3-(2-chloro-6-fluorophenyl)-5-(1-(4-(trifluoromethoxy)phenyl)-5-(trifluoromethyl)-1H-pyrazol-4-yl)isoxazole]
IL-17FF
  IC50: 1000 to 10000 nM

## CC(C)=NNC(=O)c1c(-c2c(F)cccc2Cl)noc1-c1cnn(-c2cccc(F)c2)c1 [IB-29, 3-(2-chloro-6-fluorophenyl)-5-(1-(3-fluorophenyl)-1H-pyrazol-4-yl)-N′-(propan-2-ylidene)isoxazole-4-carbohydrazide]
IFN-γ
  IC50: 1000 to 10000 nM
[1]; [2]
  IC50: 1000 to 10000 nM

## COC(=O)c1c(-c2ccccc2)noc1-c1cnn(-c2cccc(F)c2)c1C(F)(F)F [Example I-51, methyl 5-(1-(3-fluorophenyl)-5-(trifluoromethyl)-1H-pyrazol-4-yl)-3-phenylisoxazole-4-carboxylate]
IFN-γ
  IC50: 1000 to 10000 nM
[1]; [2]
  IC50: 1000 to 10000 nM

## COC(=O)c1c(-c2ccccc2)noc1-c1cnn(-c2ccc(OC(F)(F)F)cc2)c1C(F)(F)F [Example I-74, methyl 3-phenyl-5-(1-(4-(trifluoromethoxy)phenyl)-5-(trifluoromethyl)-1H-pyrazol-4-yl)isoxazole-4-carboxylate]
[1]; [2]
  IC50: 1000 to 10000 nM

## CCOC(=O)c1c(-c2onc(-c3c(F)cccc3Cl)c2C(=O)OC)cnn1-c1ccccc1 [Example I-34, methyl 3-(2-chloro-6-fluorophenyl)-5-(5-(ethoxycarbonyl)-1-phenyl-1Hpyrazol-4-yl)isoxazole-4-carboxylate]
[1]; [2]
  IC50: 1000 to 10000 nM

## COC(=O)c1c(-c2c(F)cccc2Cl)noc1-c1cnn(-c2ccc(OC(F)(F)F)cc2)c1C(F)(F)F [Example I-33, methyl 3-(2-chloro-6-fluorophenyl)-5-(1-(4-(trifluoromethoxy)phenyl)-5-(trifluoromethyl)-1H-pyrazol-4-yl)isoxazole-4-carboxylate]
[1]; [2]
  IC50: 1000 to 10000 nM

## CC(=O)Nc1c(-c2c(F)cccc2Cl)noc1-c1cnn(-c2cccc(Cl)c2)c1C(F)(F)F [IB-39, N-(3-(2-chloro-6-fluorophenyl)-5-(1-(3-chlorophenyl)-5-(trifluoromethyl)-1H-pyrazol-4-yl)-isoxazol-4-yl)acetamide]
IFN-γ
  IC50: 1000 to 10000 nM
[1]; [2]
  IC50: 1000 to 10000 nM

## CCOC(=O)c1c(-c2c(F)cccc2Cl)noc1-c1cnn(-c2ccc(C#N)cc2)c1C(F)(F)F [IB-40, ethyl 3-(2-chloro-6-fluorophenyl)-5-(1-(4-cyanophenyl)-5-(trifluoromethyl)-1H-pyrazol-4-yl)-isoxazole-4-carboxylate]
IFN-γ
  IC50: 1000 to 10000 nM
[1]; [2]
  IC50: 1000 to 10000 nM

## CCOC(=O)c1c(-c2onc(-c3c(F)cccc3Cl)c2C(=O)OC)cnn1CC(C)C [Example I-29]
[1]; [2]
  IC50: 1000 to 10000 nM

## O=C(c1c(-c2c(F)cccc2Cl)noc1-c1cnn(-c2ccccc2F)c1C(F)(F)F)N1CCN(Cc2cccc(Cl)c2)CC1 [Example I-24, (3-(2-chloro-6-fluorophenyl)-5-(1-(2-fluorophenyl)-5-(trifluoromethyl)-1H-pyrazol-4-yl)isoxazol-4-yl)(4-(3-chlorobenzyl)piperazin-1-yl)methanone]
IFN-γ
  IC50: 1000 to 10000 nM
[1]; [2]
  IC50: 100 to 1000 nM

## CNC(=S)c1c(-c2c(F)cccc2Cl)noc1-c1cnn(-c2cccc(Cl)c2)c1C(F)(F)F [Example I-72, 3-(2-chloro-6-fluorophenyl)-5-(1-(3-chlorophenyl)-5-(trifluoromethyl)-1H-pyrazol-4-yl)-N-methylisoxazole-4-carbothioamide]
IFN-γ
  IC50: 100 to 1000 nM
[1]; [2]
  IC50: 100 to 1000 nM

## CCOC(=O)c1c(-c2onc(-c3c(F)cccc3Cl)c2C(=O)OC)cnn1-c1cc(F)cc(F)c1 [Example I-39, methyl 3-(2-chloro-6-fluorophenyl)-5-(1-(3,5-difluorophenyl)-5-(ethoxycarbonyl)-1-H-pyrazol-4-yl)isoxazole-4-carboxylate]
[1]; [2]
  IC50: 1000 to 10000 nM

## O=C(O)c1c(-c2ccccc2F)noc1-c1cnn(-c2cccc(F)c2)c1C(F)(F)F [Example I-91, 3-(2-fluorophenyl)-5-(1-(3-fluorophenyl)-5-(trifluoromethyl)-1H-pyrazol-4-yl)isoxazole-4-carboxylic acid]
[1]; [2]
  IC50: 1000 to 10000 nM

## CON(C)C(=O)c1c(-c2c(F)cccc2Cl)noc1-c1cnn(-c2ccccc2Br)c1C(F)(F)F [IB-74, 5-(1-(-2-bromophenyl)-5-(trifluoromethyl)-1H-pyrazol-4-yl)-3-(2-chloro-6-fluorophenyl)-N-methoxy-N-methylisoxazole-4-carboxamide]
IFN-γ
  IC50: 1000 to 10000 nM
[1]; [2]
  IC50: 1000 to 10000 nM

## O=C(O)c1c(-c2c(F)cccc2Cl)noc1-c1cnn(Cc2ccccc2F)c1C(F)(F)F [IB-86, 3-(2-chloro-6-fluorophenyl)-5-(1-(2-fluorobenzyl)-5-(trifluoromethyl)-1H-pyrazol-4-yl)isoxazole-4-carboxylic acid]
[1]; [2]
  IC50: 1000 to 10000 nM

## COC(=O)c1c(-c2c(F)cccc2Cl)noc1-c1cnn(-c2cccc(Cl)c2Cl)c1C(F)(F)F [Example I-4, methyl 3-(2-chloro-6-fluorophenyl)-5-(1-(2,3-dichlorophenyl)-5-(trifluoromethyl)-1H-pyrazol-4-yl)isoxazole-4-carboxylate]
[1]; [2]
  IC50: 1000 to 10000 nM

## COC(=O)c1c(-c2c(F)cccc2Cl)noc1-c1cnn(-c2nc(-c3ccc(F)cc3)cs2)c1C(F)(F)F [Example I-54, methyl 3-(2-chloro-6-fluorophenyl)-5-(1-(4-(4-fluorophenyl)thiazol-2-yl)-5-(trifluoromethyl)-1H-pyrazol-4-yl)isoxazole-4-carboxylate]
[1]; [2]
  IC50: 1000 to 10000 nM

## CN1CCN(C(=O)c2c(-c3c(F)cccc3Cl)noc2-c2cnn(-c3cccc(Cl)c3)c2C(F)(F)F)CC1 [IB-34, (3-(2-chloro-6-fluorophenyl)-5-(1-(3-chlorophenyl)-5-(trifluoromethyl)-1H-pyrazol-4-yl)-isoxazol-4-yl)(4-methylpiperazin-1-yl)methanone]
IFN-γ
  IC50: 100 to 1000 nM
[1]; [2]
  IC50: 100 to 1000 nM

## CC(C)OC(=O)c1c(-c2c(F)cccc2Cl)noc1-c1cnn(-c2cccc(S(N)(=O)=O)c2)c1C(F)(F)F [IB-73, isopropyl 3-(2-chloro-6-fluorophenyl)-5-(1-(3-sulfamoylphenyl)-5-(trifluoromethyl)-1H-pyrazol-4-yl)isoxazole-4-carboxylate]
IFN-γ
  IC50: 1000 to 10000 nM
[1]; [2]
  IC50: 1000 to 10000 nM

## CC(C)Cn1ncc(-c2onc(-c3c(F)cccc3Cl)c2-c2nnn[nH]2)c1C(F)(F)F [Example 1, 3-(2-chloro-6-fluorophenyl)-5-(1-isobutyl-5-(trifluoromethyl)-1H-pyrazol-4-yl)-4-(1H-tetrazol-5-yl)isoxazole]
[1]; human PBMC, 2 μg/ml PHA, read-out: D: IC50 (Tcell proliferation)
  IC50: 1000 to 10000 nM

## COC(=O)c1c(-c2c(F)cccc2Cl)noc1-c1cnn(-c2onc(-c3ccc(Cl)cc3)c2C(=O)OC)c1C(F)(F)F [Example I-131, methyl 3-(2-chloro-6-fluorophenyl)-5-{[1-(4-methoxycarbonyl-3-(4-chlorophenyl)isoxazol-5-yl)-5-trifluoromethyl-1H-pyrazol-4-yl]}-isoxazole-4-carboxylate]
[1]; [2]
  IC50: 1000 to 10000 nM

## COC(=O)c1c(-c2c(F)cccc2Cl)noc1-c1cnn(-c2cccc(F)c2)c1C(F)(F)C(F)F [Example I-64, methyl 3-(2-chloro-6-fluorophenyl)-5-(1-(3-fluorophenyl)-5-(1,1,2,2-tetrafluoroethyl)-1H-pyrazol-4-yl)isoxazole-4-carboxylate]
[1]; [2]
  IC50: 1000 to 10000 nM

## COC(=O)c1c(-c2c(F)cccc2Cl)noc1-c1cnn(-c2ncc(C(F)(F)F)cc2Cl)c1C(F)(F)F [Example I-87]
[1]; [2]
  IC50: 1000 to 10000 nM
